Data reported in patent US5525731A, “Camptothecin analogues and methods of preparation thereof” (priority 1994, dated 1996).
“Also recorded” adds a separate entry of the source. Where two headings read alike, the source gives them in different places.

How the values were obtained:
844K cells = assay: Cytotoxicity, XTT assay, 844K cells (so in the source); assay type: cell-based; settings: Table II, read-out: Inhibitory Concentrations IC50
Method: (§1) The synthesized compounds were evaluated for their cytotoxic effects on HL-60 (human promyelocytic leukemia) and 833K cells. The assay was conducted in 96-well microplates. The compounds were serially diluted in 4 to 6 steps with dimethylsulfoxide and added to cell incubation medium (RPMI 1640 containing 10% fetal. […]) at the final concentration of 1.0% dimethylsulfoxide in the medium. The cytotoxicity of the compounds were determined by the XTT-microculture tetrazolium assay: 2',3'-bis(2-methoxy-4-nitro-5-sulfophenyl)-3-[(phenylamino)carbonyl]-2H-tetrazolium hydroxide (XTT) was prepared at 1 mg/mL in prewarmed (37° C.) medium without serum. Phenazine methosulfate (PMS) and fresh XTT were mixed together to obtain 0.075 mM PMS-XTT solution (25 mL of the stock with 5 mg PMS added per 5 mL of 1 mg/mL XTT). Fifty microliters of this mixture were added to each well of the cell culture after 72 hours exposure to the testing compound. After incubation at 37° C. for 6 hours, the absorbance was determined at 450 nm and 630 nm with a microplate reader (EL 340, Bio-Tek Instruments, Inc., Winooski, Vt.). THe median-effect inhibitory concentration (IC50) was determined from a medium-effect plot using computer software for the purpose.

833K cells = assay: Cytotoxicity, XTT assay, 833K cell growth, 72 hr exposure; assay type: cell-based; settings: for IC70: read-out: Inhibitory Concentrations IC70; for IC95: read-out: Inhibitory Concentrations IC95; for IC50: read-out: Inhibitory Concentrations IC50
Method: as §1
(§2) The results of the assay of cytotoxicity towards HL-60 and 833K cells of several analogues of camptothecin prepared in accord with the invention are illustrated in the accompanying Tables I and II, along with comparison data for native camptothecin. The data shown indicate that the camptothecin analogues prepared by the new methods provided by the invention have significant cytotoxic activity against cancer cells. […]

[1] = tested on: HL-60 cells (human promyelocytic leukemia); assay: Cytotoxicity, XTT assay, HL-60 cell growth, 72 hr exposure; assay type: cell-based
Method: as §1, §2

[2] = Cytotoxicity of compound 33 (in words); assay type: cell-based; settings: relative to camptothecin
[3] = Reactivity with thiophenol in dichloromethane
Source text: (For a related example of thiophenol addition to α-methylene-γ-lactones, see: Marshall, J. A., et al., J. Org. Chem., 47, 699 (1982).) NMR analysis of the crude reaction mixture indicated formation of the expected adducts 58 and 59.

B-16 melanoma = assay type: in vivo, BD2 F1 mice
Method: Average body weight changes were recorded daily.
Tumor: B16 Melanoma Drug A = Camptothecin
Inoculation: 2 × 10^6 cells. S.C.
(§3) Schedule: QD × 5. I.P. started day 4

topoisomerase-I = assay: Inhibition of topoisomerase-I activity (in words); assay type: biochemical
Sarcoma 180 = tested on: Sarcoma 180
Method: The control lane (Table A) indicates separate inoculation of nine mice with B-16 melanoma and sarcoma 180.
Anti-tumor activity of the newly synthesized compounds and the established drugs (as positive controls) against solid tumors (B-16 melanoma and sarcoma 180) was tested in BD2 F1 mice. Tumor (about 2.5×10^6 cells) was inoculated subcutaneously (s.c.). Treatment with the drug started on day 4 after inoculation. The drug was injected intraperitoneously (i.p) daily (QD) for five days. Control mice received the same volume (50 μl) of the solvent vehicle (Dinso) as the drug-treated animals. Tumor size was evaluated every few days using a caliper for both the control and the treated group. Average body weight changes were recorded daily. Any lethality due to high dose drug toxicity or due to tumor progression was also recorded.
as §3

[4] = Homo sapiens, Table I, 72 hr, XTT
[5] = Table I, HL-60 (head HL-6), 72 hr, XTT
[6] = Table I, HL-60 (head HL-6), 72 hr, XTT, read-out: Inhibitory Concentrations IC50
[7] = Table II, HL-60, 72 hr, XTT, read-out: Inhibitory Concentrations IC50
[8] = Table II, HL-60, 72 hr, XTT, read-out: Inhibitory Concentrations IC70
[9] = Table II, HL-60, 72 hr, XTT, read-out: Inhibitory Concentrations IC95
[10] = B-16 melanoma, 10 mg/kg i.p. QD × 5, day 7
[11] = B-16 melanoma, 30 mg/kg i.p. QD × 5, day 7
[12] = Homo sapiens, HL-60, 72 h, read-out: Inhibitory Concentrations IC50, Table I, HL-60 (head HL-6), 72 hr, XTT
[13] = Homo sapiens, HL-60, 72 h, read-out: Inhibitory Concentrations IC50, Table II, HL-60, 72 hr, XTT
[14] = Homo sapiens, HL-60, 72 h, read-out: Inhibitory Concentrations IC70, Table I, HL-60 (head HL-6), 72 hr, XTT
[15] = Homo sapiens, HL-60, 72 h, read-out: Inhibitory Concentrations IC70, Table II, HL-60, 72 hr, XTT
[16] = Homo sapiens, HL-60, 72 h, read-out: Inhibitory Concentrations IC95, Table I, HL-60 (head HL-6), 72 hr, XTT
[17] = Homo sapiens, HL-60, 72 h, read-out: Inhibitory Concentrations IC95, Table II, HL-60, 72 hr, XTT
[18] = Homo sapiens, 72 h, Table I, 72 hr, XTT
[19] = Homo sapiens, HL-60, 72 h, Table I, HL-60 (head HL-6), 72 hr, XTT, read-out: Inhibitory Concentrations IC50
[20] = Homo sapiens, HL-60, 72 h, Table I, HL-60 (head HL-6), 72 hr, XTT, read-out: Inhibitory Concentrations IC70
[21] = Homo sapiens, HL-60, 72 h, Table I, HL-60 (head HL-6), 72 hr, XTT, read-out: Inhibitory Concentrations IC95
[22] = Homo sapiens, HL-60, 72 h, Table II, HL-60, 72 hr, XTT, read-out: Inhibitory Concentrations IC50
[23] = Homo sapiens, HL-60, 72 h, Table II, HL-60, 72 hr, XTT, read-out: Inhibitory Concentrations IC70
[24] = Homo sapiens, HL-60, 72 h, Table II, HL-60, 72 hr, XTT, read-out: Inhibitory Concentrations IC95

CC[C@@]1(O)C(=O)OCc2c1cc1n(c2=O)Cc2cc3c(CN(C)C)c(O)ccc3nc2-1 [Topotecan]
IC50 (844K cells): 46 nM

CCC1C(=O)OCc2c1c(C(=O)OC)c1n(c2=O)Cc2cc3ccccc3nc2-1 (stereo not shown) [WS-4, 14-Carbomethoxy-20-deoxycamptothecin]
IC70 (833K cells; [4]): 5800 nM
IC95 (833K cells; [4]): 59800 nM
IC50 (833K cells; Table I, 72 hr, XTT): 2260 nM
Inhibitory Concentrations IC70 [1, 5]: 12.0
Inhibitory Concentrations IC95 [1, 5]: 618.7
IC50 [1, 6]: 2440 nM
IC50 [1, 7]: 2440 nM
IC70 [1, 8]: 12000 nM
IC95 [1, 9]: 618700 nM

C=C1C(=O)OCc2c1cc1n(c2=O)Cc2c-1nc1ccc(O)cc1c2CC [Compound 33, 7-Ethyl-10-hydroxy-18-nor-anhydrocamptothecin]
cytotoxicity [2]: significantly reduced levels relative to camptothecin
reaction with thiophenol [3]: consumption of starting material
AVERAGE TUMOR VOLUME (B-16 melanoma; B16 melanoma, 10 mg/kg, day 7): 0.163 CM^3
PERCENT OF CONTROL (tumor volume) (B-16 melanoma; B16 melanoma, 10 mg/kg, day 7): 85.8%
AVERAGE TUMOR VOLUME (B-16 melanoma; B16 melanoma, 10 mg/kg, day 14): 2.320 CM^3
AWC (average weight change) (B-16 melanoma; B16 melanoma, 10 mg/kg, day 14): +2.7 GM
PERCENT OF CONTROL (tumor volume) (B-16 melanoma; B16 melanoma, 10 mg/kg, day 14): 72.7%
AVERAGE TUMOR VOLUME (B-16 melanoma; B16 melanoma, 30 mg/kg, day 7): 0.036 CM^3
PERCENT OF CONTROL (tumor volume) (B-16 melanoma; B16 melanoma, 30 mg/kg, day 7): 18.9%
AVERAGE TUMOR VOLUME (B-16 melanoma; B16 melanoma, 30 mg/kg, day 14): 2.925 CM^3
AWC (average weight change) (B-16 melanoma; B16 melanoma, 30 mg/kg, day 14): +2.7 GM
PERCENT OF CONTROL (tumor volume) (B-16 melanoma; B16 melanoma, 30 mg/kg, day 14): 91.7%
activity compared with authentic camptothecin (B-16 melanoma; B-16 melanoma and sarcoma 180 together): compares favorably with that of authentic camptothecin
decreased body weight (B-16 melanoma; B-16 melanoma, 10 mg/kg): 1.4 gm
tumor volume decrease (B-16 melanoma; B-16 melanoma, 10 mg/kg): 14%
AWC (average weight change) (B-16 melanoma; [10]): -1.4 gm
Ave Tumor Volume (T/C) (B-16 melanoma; [10]): 0.858
decreased body weight (B-16 melanoma; B-16 melanoma, 30 mg/kg): 1.9 gm
tumor volume decrease (B-16 melanoma; B-16 melanoma, 30 mg/kg): 81%
AWC (average weight change) (B-16 melanoma; [11]): -1.9 gm
Ave Tumor Volume (T/C) (B-16 melanoma; [11]): 0.189
inhibition of topoisomerase-I activity (topoisomerase-I): potent camptothecin-like inhibition of topoisomerase-I activity; also recorded: still retaining enzyme inhibitory function
DEATHS (D/L) (Sarcoma 180; Sarcoma 180, 10 mg/kg, day 7): 0/2
DEATHS (D/L) (Sarcoma 180; Sarcoma 180, 10 mg/kg, day 14): 0/2
DEATHS (D/L) (Sarcoma 180; Sarcoma 180, 30 mg/kg, day 7, death on day 4 after treatment, listed as 18-nor-20-dehydro-7-ethyl-10-hydroxycamptothecin): one of the two subjects died after day 4 of treatment
DEATHS (D/L) (Sarcoma 180; Sarcoma 180, 30 mg/kg, day 7, death on day 4 after treatment, listed as 20-CH2 -7-Et-10-OH-CPT): One of two mice died on day 4 after treatment
DEATHS (D/L) (Sarcoma 180; Sarcoma 180, 30 mg/kg, day 7, death on day 4 after treatment, listed as B): 1/2
DEATHS (D/L) (Sarcoma 180; Sarcoma 180, 30 mg/kg, day 14): 0/1

CCC1(O)C(=O)OC(C)c2c1cc1n(c2=O)Cc2cc3ccccc3nc2-1 (stereo not shown) [WS-6, 17-Methylcamptothecin]
IC50 (833K cells; Homo sapiens, 72 h): 3710 nM
IC70 (833K cells; Homo sapiens, 72 h): 7340 nM
IC95 (833K cells; Homo sapiens, 72 h): 40100 nM
IC50 [1, 12]: 266 nM
IC50 [1, 13]: 266 nM
IC70 [1, 14]: 432 nM
IC70 [1, 15]: 432 nM
IC95 [1, 16]: 1430 nM
IC95 [1, 17]: 1430 nM

CCC1C(=O)OCc2c1cc1n(c2=O)Cc2cc3ccccc3nc2-1 (stereo not shown) [WS-2, 20-Deoxycamptothecin]
IC50 (833K cells; [18]): 310 nM
IC70 (833K cells; [4]): 143 nM
IC95 (833K cells; [4]): 3170 nM
IC50 [1, 19]: 39 nM
IC70 [1, 20]: 52 nM
IC95 [1, 21]: 109 nM
IC50 [1, 22]: 39 nM
IC70 [1, 23]: 52 nM
IC95 [1, 24]: 109 nM

CC1(O)C(=O)OCc2c1cc1n(c2=O)Cc2cc3ccccc3nc2-1 (stereo not shown) [WS-7, 20-Methylcamptothecin]
IC50 (833K cells; Homo sapiens, 72 h): 82 nM
IC70 (833K cells; Homo sapiens, 72 h): 290 nM
IC95 (833K cells; Homo sapiens, 72 h): 7160 nM
IC50 [1, 12]: 62 nM
IC50 [1, 13]: 62 nM
IC70 [1, 14]: 90 nM
IC70 [1, 15]: 90 nM
IC95 [1, 16]: 229 nM
IC95 [1, 17]: 229 nM

C=C1C(=O)OCc2c1cc1n(c2=O)Cc2cc3ccccc3nc2-1 [Compound 32, 18-nor-anhydrocamptothecin]
reaction with thiophenol [3]: consumption of starting material
inhibition of topoisomerase-I activity (topoisomerase-I): potent camptothecin-like inhibition of topoisomerase-I activity

CCC1(O)C(=O)OCc2c1c(C(=O)OC)c1n(c2=O)Cc2cc3ccccc3nc2-1 (stereo not shown) [WS-5, 14-Carbomethoxy-Camptothecin]
IC50 (833K cells; Homo sapiens, 72 h): 63500 nM
IC70 (833K cells; Homo sapiens, 72 h): 83700 nM
IC95 (833K cells; Homo sapiens, 72 h): 898000 ± 750000 nM
IC50 [1, 12]: > 5000 nM
IC50 [1, 13]: > 5000 nM

CC=C1C(=O)OCc2c1cc1n(c2=O)Cc2cc3ccccc3nc2-1 [WS-8, 20-dehydrated-CPT]
IC50 (833K cells; [18]): 1700 nM
IC70 (833K cells; [4]): 4750 nM
IC95 (833K cells; [4]): 50400 ± 13800 nM
IC50 [1, 19]: 3440 nM
IC70 [1, 20]: 5470 nM
IC95 [1, 21]: 17100 nM
IC50 [1, 22]: 3440 nM
IC70 [1, 23]: 5470 nM
IC95 [1, 24]: 17100 nM

CCC1C(=O)OCc2c1c(C(=O)OC)c1n(c2=O)Cc2cc3ccccc3nc2-1 (stereo not shown) [WS-3, 14-Carbomethoxy-20-deoxycamptothecin]
IC50 (833K cells; Table I, 72 hr, XTT): > 50000 nM
Inhibitory Concentrations IC70 [1, 5]: 0.318
Inhibitory Concentrations IC95 [1, 5]: 1.082
IC50 [1, 6]: 914 nM
IC50 [1, 7]: 194 nM
IC70 [1, 8]: 318 nM
IC95 [1, 9]: 1082 nM
